# pIC50: −log10 of the molar value. Starred links: 1 amine or outer side, 2 acyl side, 3 side chain; linkers in the order of their positions; H or OH if unused. Residues, ends and D or L forms follow the SMILES beside them. Groups on a side chain read outwards from the residue. *: point of attachment. Pyrrolidide = C1CCN(*)C1; CO = O=C([*:1])[*:2]; Ms = CS(=O)(=O)*
# Biological target: T1, Integrin alpha-4/beta-7 (Homo sapiens, UniProt P13612+P26010)
# T1 sequence (P13612 whole entry): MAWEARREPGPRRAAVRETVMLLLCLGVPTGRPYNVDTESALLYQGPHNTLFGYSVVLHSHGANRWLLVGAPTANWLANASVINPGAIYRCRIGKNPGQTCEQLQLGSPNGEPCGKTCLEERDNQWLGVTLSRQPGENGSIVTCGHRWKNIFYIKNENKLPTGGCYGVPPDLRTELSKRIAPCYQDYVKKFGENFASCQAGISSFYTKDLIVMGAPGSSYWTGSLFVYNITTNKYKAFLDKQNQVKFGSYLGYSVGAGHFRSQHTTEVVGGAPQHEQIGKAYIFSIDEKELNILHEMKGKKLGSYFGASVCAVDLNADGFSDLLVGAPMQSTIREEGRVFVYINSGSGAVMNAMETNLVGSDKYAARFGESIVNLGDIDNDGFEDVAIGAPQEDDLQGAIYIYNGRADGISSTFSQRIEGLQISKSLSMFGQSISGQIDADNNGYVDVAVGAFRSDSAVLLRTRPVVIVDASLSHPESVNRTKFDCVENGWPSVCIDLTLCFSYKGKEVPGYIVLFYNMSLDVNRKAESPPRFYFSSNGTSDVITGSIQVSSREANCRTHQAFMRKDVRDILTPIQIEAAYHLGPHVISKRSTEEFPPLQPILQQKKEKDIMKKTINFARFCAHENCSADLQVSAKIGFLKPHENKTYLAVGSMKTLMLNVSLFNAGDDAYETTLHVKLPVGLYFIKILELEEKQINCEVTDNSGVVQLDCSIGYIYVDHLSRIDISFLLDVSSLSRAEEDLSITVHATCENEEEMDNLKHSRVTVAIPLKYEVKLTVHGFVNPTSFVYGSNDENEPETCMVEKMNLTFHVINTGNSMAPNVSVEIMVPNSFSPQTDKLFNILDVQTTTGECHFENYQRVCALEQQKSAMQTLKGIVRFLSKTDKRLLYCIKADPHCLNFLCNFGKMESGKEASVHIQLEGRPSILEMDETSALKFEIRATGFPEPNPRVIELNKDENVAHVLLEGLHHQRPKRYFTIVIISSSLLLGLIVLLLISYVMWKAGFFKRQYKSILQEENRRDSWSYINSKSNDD
# T1 sequence (P26010 whole entry): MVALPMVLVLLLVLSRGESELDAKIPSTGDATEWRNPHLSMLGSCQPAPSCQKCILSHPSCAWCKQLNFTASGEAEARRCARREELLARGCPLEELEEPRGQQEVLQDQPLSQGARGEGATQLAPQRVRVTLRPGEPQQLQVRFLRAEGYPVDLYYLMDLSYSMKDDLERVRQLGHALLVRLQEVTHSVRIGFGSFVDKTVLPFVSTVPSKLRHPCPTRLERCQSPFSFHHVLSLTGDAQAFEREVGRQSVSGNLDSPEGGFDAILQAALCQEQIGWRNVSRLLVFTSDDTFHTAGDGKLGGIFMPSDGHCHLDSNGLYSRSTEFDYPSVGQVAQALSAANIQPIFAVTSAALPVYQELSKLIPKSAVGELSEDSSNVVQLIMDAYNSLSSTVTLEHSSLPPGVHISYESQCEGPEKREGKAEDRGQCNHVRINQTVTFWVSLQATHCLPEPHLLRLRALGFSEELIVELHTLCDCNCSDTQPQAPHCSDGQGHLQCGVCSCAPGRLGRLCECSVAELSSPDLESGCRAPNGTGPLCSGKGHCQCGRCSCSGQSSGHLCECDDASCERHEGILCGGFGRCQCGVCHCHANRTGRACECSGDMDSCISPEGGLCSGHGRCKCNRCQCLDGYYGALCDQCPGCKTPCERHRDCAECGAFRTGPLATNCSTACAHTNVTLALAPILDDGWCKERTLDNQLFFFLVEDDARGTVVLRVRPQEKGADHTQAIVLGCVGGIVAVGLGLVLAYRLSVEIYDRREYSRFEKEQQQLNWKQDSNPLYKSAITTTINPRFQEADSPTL
# Assay: Alpha4-beta7 integrin binding affinity was determined in duplicate by a radioligand binding assay using [125I]-VCAM-Ig and a suspension of RPMI-8866 cells (a human B cell line alpha-4-beta-1-beta-7+); call rule not given here
# Type: cell-based
row,pIC50,Structure (SMILES)
1,7.29,CC(=O)COc1ccc(C[C@H](NC(=O)[C@@H]2CCCN2S(=O)(=O)c2cc(Cl)cc(Cl)c2)C(=O)O)cc1
2,6.61,N#CCOc1ccc(C[C@H](NC(=O)[C@@H]2CCCN2S(=O)(=O)c2cc(Cl)cc(Cl)c2)C(=O)O)cc1
3,7.89,O=C(Oc1ccc(C[C@H](NC(=O)[C@@H]2CCCN2S(=O)(=O)c2cc(Cl)cc(Cl)c2)C(=O)O)cc1)c1ccc[nH]1
4,6.07,O=C(O)[C@H](Cc1ccc(OCc2ccccc2)cc1)NC(=O)[C@@H]1CCCN1S(=O)(=O)c1cc(Cl)cc(Cl)c1
5,7.20,CC(C)N(C(=O)Oc1ccc(C[C@H](NC(=O)[C@]2(C)CCCN2S(=O)(=O)c2cc(Cl)cc(Cl)c2)C(=O)O)cc1)C(C)C
6,7.23,O=C(Oc1ccc(C[C@H](NC(=O)[C@@H]2CCCN2S(=O)(=O)c2cc(Cl)cc(Cl)c2)C(=O)O)cc1)C1CCCC1

# The next lines start with the compound.
row,Structure (SMILES),pIC50
1,O=C(O)[C@H](Cc1ccc(OC(=O)N2CCCC2)cc1)NC(=O)[C@@H]1CCCN1S(=O)(=O)c1cc(Cl)cc(Cl)c1,8.72
2,COCCOc1ccc(C[C@H](NC(=O)[C@@H]2CCCN2S(=O)(=O)c2cc(Cl)cc(Cl)c2)C(=O)O)cc1,7.20
3,O=C(O)[C@H](Cc1ccc(OCc2nnn[nH]2)cc1)NC(=O)[C@@H]1CCCN1S(=O)(=O)c1cc(Cl)cc(Cl)c1,6.78
4,CS(=O)(=O)N1CCC[C@H]1C(=O)N[C@@H](Cc1ccc(OC(=O)N2CCCC2)cc1)C(=O)O (Ms-Pro-Tyr([CO-Pyrrolidide])-OH),8.36

# Biological target: T1, Integrin alpha-4/beta-7
# Assay: Inhibition of [125I]VCAM-Ig binding to Alpha4-beta7 integrin of RPMI-8866 cells at […] (inactive)
# Type: cell-based
row,IC50,Structure (SMILES)
1,Not Active,C[C@@]1(C(=O)N[C@@H](Cc2cccc(OC(=O)N3CCCC3)c2)C(=O)O)CCCN1S(=O)(=O)c1cc(Cl)cc(Cl)c1
2,Not Active,CC(C)(C)Oc1cccc(C[C@H](NC(=O)[C@]2(C)CCCN2S(=O)(=O)c2cc(Cl)cc(Cl)c2)C(=O)O)c1
3,Not Active,CC(C)(C)OC(=O)COc1cccc(C[C@H](NC(=O)[C@]2(C)CCCN2S(=O)(=O)c2cc(Cl)cc(Cl)c2)C(=O)O)c1

# Biological target: Integrin alpha-4/beta-1 (Homo sapiens, UniProt P05556+P13612)
# Assay: Alpha4-beta1 integrin binding affinity was assessed by measuring the reduction in binding of [125I]VCAM-Ig to a suspension of Jurkat cells (a human T cell line alpha-4-beta-1-beta-7)
# Type: cell-based
# Chain of Integrin alpha-4/beta-1 (P05556 whole entry, one chain of several): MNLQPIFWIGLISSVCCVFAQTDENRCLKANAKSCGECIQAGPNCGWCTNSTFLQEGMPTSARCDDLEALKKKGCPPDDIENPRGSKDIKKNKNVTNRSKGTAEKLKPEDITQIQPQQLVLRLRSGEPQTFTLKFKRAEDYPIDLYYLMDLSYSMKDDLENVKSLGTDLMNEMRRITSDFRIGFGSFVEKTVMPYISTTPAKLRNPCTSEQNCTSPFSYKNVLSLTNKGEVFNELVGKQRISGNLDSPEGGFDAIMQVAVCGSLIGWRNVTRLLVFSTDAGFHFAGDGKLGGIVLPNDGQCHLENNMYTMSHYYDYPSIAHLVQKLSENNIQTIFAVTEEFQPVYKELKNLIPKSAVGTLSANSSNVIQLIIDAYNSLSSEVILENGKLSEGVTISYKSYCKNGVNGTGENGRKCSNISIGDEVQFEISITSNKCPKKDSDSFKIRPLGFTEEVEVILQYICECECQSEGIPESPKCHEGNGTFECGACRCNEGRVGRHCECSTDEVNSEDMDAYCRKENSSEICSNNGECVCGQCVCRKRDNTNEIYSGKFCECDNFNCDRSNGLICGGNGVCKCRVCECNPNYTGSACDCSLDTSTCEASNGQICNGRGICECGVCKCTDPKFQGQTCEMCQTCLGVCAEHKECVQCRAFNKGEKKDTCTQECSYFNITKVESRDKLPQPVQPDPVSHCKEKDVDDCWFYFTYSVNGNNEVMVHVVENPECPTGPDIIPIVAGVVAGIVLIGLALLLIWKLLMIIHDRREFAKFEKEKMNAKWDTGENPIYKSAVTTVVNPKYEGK
row,pIC50,Structure (SMILES)
1,9.74,CC(=O)COc1ccc(C[C@H](NC(=O)[C@@H]2CCCN2S(=O)(=O)c2cc(Cl)cc(Cl)c2)C(=O)O)cc1
2,9.59,N#CCOc1ccc(C[C@H](NC(=O)[C@@H]2CCCN2S(=O)(=O)c2cc(Cl)cc(Cl)c2)C(=O)O)cc1
3,9.59,O=C(Oc1ccc(C[C@H](NC(=O)[C@@H]2CCCN2S(=O)(=O)c2cc(Cl)cc(Cl)c2)C(=O)O)cc1)c1ccc[nH]1
4,8.71,O=C(O)[C@H](Cc1ccc(OCc2ccccc2)cc1)NC(=O)[C@@H]1CCCN1S(=O)(=O)c1cc(Cl)cc(Cl)c1
5,9.66,CC(C)N(C(=O)Oc1ccc(C[C@H](NC(=O)[C@]2(C)CCCN2S(=O)(=O)c2cc(Cl)cc(Cl)c2)C(=O)O)cc1)C(C)C
6,9.66,O=C(Oc1ccc(C[C@H](NC(=O)[C@@H]2CCCN2S(=O)(=O)c2cc(Cl)cc(Cl)c2)C(=O)O)cc1)C1CCCC1

# Second part, the compound before the results:
row,Structure (SMILES),pIC50
1,C[C@@]1(C(=O)N[C@@H](Cc2cccc(OC(=O)N3CCCC3)c2)C(=O)O)CCCN1S(=O)(=O)c1cc(Cl)cc(Cl)c1,8.44
2,CC(C)(C)Oc1cccc(C[C@H](NC(=O)[C@]2(C)CCCN2S(=O)(=O)c2cc(Cl)cc(Cl)c2)C(=O)O)c1,8.75
3,CC(C)(C)OC(=O)COc1cccc(C[C@H](NC(=O)[C@]2(C)CCCN2S(=O)(=O)c2cc(Cl)cc(Cl)c2)C(=O)O)c1,9.39
4,O=C(O)[C@H](Cc1ccc(OC(=O)N2CCCC2)cc1)NC(=O)[C@@H]1CCCN1S(=O)(=O)c1cc(Cl)cc(Cl)c1,9.89
5,COCCOc1ccc(C[C@H](NC(=O)[C@@H]2CCCN2S(=O)(=O)c2cc(Cl)cc(Cl)c2)C(=O)O)cc1,9.55
6,O=C(O)[C@H](Cc1ccc(OCc2nnn[nH]2)cc1)NC(=O)[C@@H]1CCCN1S(=O)(=O)c1cc(Cl)cc(Cl)c1,9.68
7,CS(=O)(=O)N1CCC[C@H]1C(=O)N[C@@H](Cc1ccc(OC(=O)N2CCCC2)cc1)C(=O)O (Ms-Pro-Tyr([CO-Pyrrolidide])-OH),9.30

# Reference: ChEMBL document CHEMBL1135368, “The discovery of small molecule carbamates as potent dual alpha(4)beta(1)/alpha(4)beta(7) integrin antagonists” (Bioorg Med Chem Lett, 2002)
